Data from patent publication US11926628B2 (Gilead Sciences, Inc., priority 2021, dated 2024).

Experiments:
[1] = tested on: Jurkat NFκB-luciferase cells; assay: Jurkat NFκB-Luciferase Assay; assay type: cell-based; details: Homo sapiens; Jurkat NFκB-luciferase cells activated with anti-CD3 antibody (OKT3), 2.5 hrs at 37° C.; geometric mean; read-out: DGK NFKb Luciferase EC50
Outline: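 Jurkat NFκB-luciferase reporter cells stimulated on plate-bound anti-CD3 (5 ug/ml coating) with compound, 2.5 hrs at 37° C then 30 min at 25° C; luminescence read with One-Glo Ex. Normalized to DMSO (basal) and 1 micromolar compound (maximum) controls; EC50 from four-parameter fit, geometric mean across experiments.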

human DGKα = human DGKα (Homo sapiens (Human), UniProt P23743); assay: DGKα Biochemical Activity Assay (ADP-Glo); details: recombinant DGKα 1 nM, 100 μM ATP, 18:1 DAG/POPS/octylglucoside micelles, 1 hour at 25° C.; geometric mean; read-out: HTBS DGKa 1X ATP KM IC50
Outline: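 Recombinant DGKα (1 nM final) was preincubated with compound for 15 min, then reacted for 1 h at 25 °C with 100 μM ATP and octylglucoside micelles of 0.85 mM 18:1 DAG and 6.75 mM POPS in pH 7.2 MOPS with 5 mM MgCl2. ADP formed was read by ADP-Glo luminescence. IC50 came from four-parameter fits normalized to DMSO and 50 μM CU3, and values were geometric means.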

human DGKα, sequence (P23743 whole entry): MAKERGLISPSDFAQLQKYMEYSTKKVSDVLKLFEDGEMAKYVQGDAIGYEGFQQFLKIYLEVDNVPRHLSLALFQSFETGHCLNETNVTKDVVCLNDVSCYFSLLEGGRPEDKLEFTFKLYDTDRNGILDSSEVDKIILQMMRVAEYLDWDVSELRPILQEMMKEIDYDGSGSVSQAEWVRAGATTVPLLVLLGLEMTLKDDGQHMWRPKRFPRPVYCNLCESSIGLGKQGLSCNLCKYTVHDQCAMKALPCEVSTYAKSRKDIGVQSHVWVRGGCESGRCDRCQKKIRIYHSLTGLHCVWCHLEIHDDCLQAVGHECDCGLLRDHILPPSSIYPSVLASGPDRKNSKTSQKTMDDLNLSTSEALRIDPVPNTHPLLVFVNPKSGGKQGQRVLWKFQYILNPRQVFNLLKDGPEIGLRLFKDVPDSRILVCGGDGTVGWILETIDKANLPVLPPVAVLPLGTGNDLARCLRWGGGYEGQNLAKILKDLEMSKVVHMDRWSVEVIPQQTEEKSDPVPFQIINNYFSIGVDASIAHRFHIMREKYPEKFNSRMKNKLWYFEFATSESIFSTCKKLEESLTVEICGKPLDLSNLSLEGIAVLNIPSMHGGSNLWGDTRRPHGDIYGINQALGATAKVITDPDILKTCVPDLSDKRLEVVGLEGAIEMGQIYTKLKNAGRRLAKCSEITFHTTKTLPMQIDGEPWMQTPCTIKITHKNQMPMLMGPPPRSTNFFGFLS

Row | SMILES | EC50 [1] | IC50 (human DGKα)
1 | Cc1nnc2nc(N3CCCc4c(C#CC(C)(C)O)cccc43)c3cc(F)cnc3n12 [Example 98, 4-(1-(3-fluoro-9-methylpyrido[3,2-e][1,2,4]triazolo[4,3-a]pyrimidin-5-yl)-1,2,3,4-tetrahydroquinolin-5-yl)-2-methylbut-3-yn-2-ol] | 26.2 nM | 49 nM
2 | Cc1nnc2nc(N(CC(F)F)c3cc(F)cc(C#CC(C)(C)O)c3)c3cc(F)cnc3n12 [Example 99, 4-(3-((2,2-difluoroethyl)(3-fluoro-9-methylpyrido[3,2-e][1,2,4]triazolo[4,3-a]pyrimidin-5-yl)amino)-5-fluorophenyl)-2-methylbut-3-yn-2-ol] | 53.1 nM | 38.9 nM
3 | Cc1nnc2nc(N3CCCc4c(C#CC5(C(F)F)CC5)cccc43)c3cc(F)cnc3n12 [Example 100, 5-(5-((1-(difluoromethyl)cyclopropyl)ethynyl)-3,4-dihydroquinolin-1(2H)-yl)-3-fluoro-9-methylpyrido[3,2-e][1,2,4]triazolo[4,3-a]pyrimidine] | 2.26 nM | 7.93 nM
4 | Cc1nnc2nc(N3CCCc4c(C#CC5(C(F)(F)F)CC5)cccc43)c3cc(F)cnc3n12 [Example 101, 3-fluoro-9-methyl-5-(5-((1-(trifluoromethyl)cyclopropyl)ethynyl)-3,4-dihydroquinolin-1(2H)-yl)pyrido[3,2-e][1,2,4]triazolo[4,3-a]pyrimidine] | 1.01 nM | 6.21 nM
5 | Cc1nnc2nc(N3CCCc4c(C#CC(C)(C)C(F)(F)F)cccc43)c3cc(F)cnc3n12 [Example 102, 3-fluoro-9-methyl-5-(5-(4,4,4-trifluoro-3,3-dimethylbut-1-yn-1-yl)-3,4-dihydroquinolin-1(2H)-yl)pyrido[3,2-e][1,2,4]triazolo[4,3-a]pyrimidine] | 1.8 nM | 21.4 nM
6 | Cc1nnc2nc(N(CC(F)F)c3cc(F)cc(C#CC(C)(C)C(F)(F)F)c3)c3cc(F)cnc3n12 [Example 103, N-(2,2-difluoroethyl)-3-fluoro-N-(3-fluoro-5-(4,4,4-trifluoro-3,3-dimethylbut-1-yn-1-yl)phenyl)-9-methylpyrido[3,2-e][1,2,4]triazolo[4,3-a]pyrimidin-5-amine] | 1.64 nM | 9.34 nM
7 | Cc1nnc2nc(N(CC(F)F)c3cc(F)cc(C#CC4(C)CC4)c3)c3cc(F)cnc3n12 [Example 104, N-(2,2-difluoroethyl)-3-fluoro-N-(3-fluoro-5-((1-methylcyclopropyl)ethynyl)phenyl)-9-methylpyrido[3,2-e][1,2,4]triazolo[4,3-a]pyrimidin-5-amine] | 3.53 nM | 14.5 nM
8 | Cc1nnc2nc(N(CC(F)F)c3cc(F)cc(C#CC4(C(F)F)CC4)c3)c3cc(F)cnc3n12 [Example 105, N-(2,2-difluoroethyl)-N-(3-((1-(difluoromethyl)cyclopropyl)ethynyl)-5-fluorophenyl)-3-fluoro-9-methylpyrido[3,2-e][1,2,4]triazolo[4,3-a]pyrimidin-5-amine] | 5.57 nM | 13.3 nM
9 | Cc1nnc2nc(N(CC(F)F)c3cc(F)cc(C#CC4(C(F)(F)F)CC4)c3)c3cc(F)cnc3n12 [Example 106, N-(2,2-difluoroethyl)-3-fluoro-N-(3-fluoro-5-((1-(trifluoromethyl)cyclopropyl)ethynyl)phenyl)-9-methylpyrido[3,2-e][1,2,4]triazolo[4,3-a]pyrimidin-5-amine] | 2.25 nM | 6.42 nM
10 | Cc1nnc2nc(N3CCCc4c(C#CC5(C)CC5)cccc43)c3cc(F)cnc3n12 [Example 107, 3-fluoro-9-methyl-5-(5-((1-methylcyclopropyl)ethynyl)-3,4-dihydroquinolin-1(2H)-yl)pyrido[3,2-e][1,2,4]triazolo[4,3-a]pyrimidine] | 1.85 nM | 11.9 nM
11 | Fc1cnc2c(c1)c(N1CCCc3c(C#CC4(C(F)F)CC4)cccc31)nc1nncn12 [Example 108, 5-(5-((1-(difluoromethyl)cyclopropyl)ethynyl)-3,4-dihydroquinolin-1(2H)-yl)-3-fluoropyrido[3,2-e][1,2,4]triazolo[4,3-a]pyrimidine] | 3.08 nM | 3.43 nM
12 | CC1(C#Cc2cccc3c2CCCN3c2nc3nncn3c3ncc(F)cc23)CC1 [Example 109, 3-fluoro-5-(5-((1-methylcyclopropyl)ethynyl)-3,4-dihydroquinolin-1(2H)-yl)pyrido[3,2-e][1,2,4]triazolo[4,3-a]pyrimidine] | 1.75 nM | 5.62 nM
13 | COc1ccc2c(N(C)c3cccc(C#CC(C)(C)O)c3)nc3nncn3c2n1 [Example 114, 4-(3-((2-methoxypyrido[3,2-e][1,2,4]triazolo[4,3-a]pyrimidin-5-yl)(methyl)amino)phenyl)-2-methylbut-3-yn-2-ol] | 27 nM | 75.4 nM

Continued, values first:

Row | EC50 [1] | IC50 (human DGKα) | SMILES
14 | 1.74 nM | 448 nM | COc1ccc2c(N(C)c3cccc(-c4ccc(S(F)(F)(F)(F)F)cc4)c3)nc3nncn3c2n1 [Example 115, 2-methoxy-N-methyl-N-(4′-(pentafluoro-16-sulfaneyl)-[1,1′-biphenyl]-3-yl)pyrido[3,2-e][1,2,4]triazolo[4,3-a]pyrimidin-5-amine]
15 | 5.67 nM | 439 nM | CNc1ccc2c(N(C)c3cccc(-c4ccc(S(F)(F)(F)(F)F)cc4)c3)nc3nncn3c2n1 [Example 116, N2,N5-dimethyl-N5-(4′-(pentafluoro-16-sulfaneyl)-[1,1′-biphenyl]-3-yl)pyrido[3,2-e][1,2,4]triazolo[4,3-a]pyrimidine-2,5-diamine]
16 | 4.88 nM | 30.4 nM | CN(c1cccc(-c2ccc(S(F)(F)(F)(F)F)cc2)c1)c1nc2nncn2c2nc(N)ccc12 [Example 117, N5-methyl-N5-(4′-(pentafluoro-16-sulfaneyl)-[1,1′-biphenyl]-3-yl)pyrido[3,2-e][1,2,4]triazolo[4,3-a]pyrimidine-2,5-diamine]
17 | 5.79 nM | 105 nM | CNc1ccc2c(N(C)c3cccc(C#CC(C)(C)C)c3)nc3nncn3c2n1 [Example 118, N5-(3-(3,3-dimethylbut-1-yn-1-yl)phenyl)-N2,N5-dimethylpyrido[3,2-e][1,2,4]triazolo[4,3-a]pyrimidine-2,5-diamine]
18 | 52.2 nM | 392 nM | CNc1ccc2c(N(C)c3cccc(-c4ccc(OC)nc4)c3)nc3nncn3c2n1 [Example 119, N5-(3-(6-methoxypyridin-3-yl)phenyl)-N2,N5-dimethylpyrido[3,2-e][1,2,4]triazolo[4,3-a]pyrimidine-2,5-diamine]
19 | 0.664 nM | 19.3 nM | CNc1ccc2c(N(C)c3cccc(-c4ccc(C5CC5)cc4)c3)nc3nncn3c2n1 [Example 120, N5-(4′-cyclopropyl-[1,1′-biphenyl]-3-yl)-N2,N5-dimethylpyrido[3,2-e][1,2,4]triazolo[4,3-a]pyrimidine-2,5-diamine]
20 | 6.93 nM | 46.2 nM | CN(c1cccc(C#CC2(C(F)(F)F)CC2)c1)c1nc2nncn2c2nc(N)ccc12 [Example 121, N5-methyl-N5-(3-((1-(trifluoromethyl)cyclopropyl)ethynyl)phenyl)pyrido[3,2-e][1,2,4]triazolo[4,3-a]pyrimidine-2,5-diamine]
21 | 4.15 nM | 42.7 nM | Cc1ccc2c(N(C)c3cccc(C#CC(C)(C)C)c3)nc3nncn3c2n1 [Example 122, N-(3-(3,3-dimethylbut-1-yn-1-yl)phenyl)-N,2-dimethylpyrido[3,2-e][1,2,4]triazolo[4,3-a]pyrimidin-5-amine]
22 | 2.05 nM | 12.7 nM | Cc1ccc2c(N(C)c3cccc(-c4ccc(C5CC5)cc4)c3)nc3nncn3c2n1 [Example 123, N-(4′-cyclopropyl-[1,1′-biphenyl]-3-yl)-N,2-dimethylpyrido[3,2-e][1,2,4]triazolo[4,3-a]pyrimidin-5-amine]
23 | 7.45 nM | 12.3 nM | Cc1ccc2c(N(C)c3cccc(-c4ccc(C(F)F)cc4)c3)nc3nncn3c2n1 [Example 124, N-(4′-(difluoromethyl)-[1,1′-biphenyl]-3-yl)-N,2-dimethylpyrido[3,2-e][1,2,4]triazolo[4,3-a]pyrimidin-5-amine]
24 | 169 nM | 734 nM | Cc1ccc2c(N(C)c3cccc(Cl)c3)nc3nncn3c2n1 [Example 125, N-(3-chlorophenyl)-N,2-dimethylpyrido[3,2-e][1,2,4]triazolo[4,3-a]pyrimidin-5-amine]
25 | 3.15 nM | 21.4 nM | CN(c1cccc(C#CC(C)(C)C)c1)c1nc2nncn2c2nc(N)ccc12 [Example 126, N5-(3-(3,3-dimethylbut-1-yn-1-yl)phenyl)-N5-methylpyrido[3,2-e][1,2,4]triazolo[4,3-a]pyrimidine-2,5-diamine]
26 | 1.43 nM | 7.25 nM | CN(c1cccc(-c2ccc(C3CC3)cc2)c1)c1nc2nncn2c2nc(N)ccc12 [Example 127, N5-(4′-cyclopropyl-[1,1′-biphenyl]-3-yl)-N5-methylpyrido[3,2-e][1,2,4]triazolo[4,3-a]pyrimidine-2,5-diamine]
27 | 3.46 nM | 102 nM | COc1ccc2c(N(C)c3cccc(C#CC(C)(C)C)c3)nc3nncn3c2n1 [Example 128, N-(3-(3,3-dimethylbut-1-yn-1-yl)phenyl)-2-methoxy-N-methylpyrido[3,2-e][1,2,4]triazolo[4,3-a]pyrimidin-5-amine]
